Experimental data: publication PMC12463105, “NSP7 Molecular Degrader Attenuates Coronaviral Infection Through the β‐TrCP1/FBXO5 Axis” (Advanced Science, 2025)

Key:
HCoV-OC43 = tested on: T1, HCoV-OC43; experiment: microbe, parasite or virus in culture; design: HCoV-OC43 infection assay, reduction of viral infection; settings: Betacoronavirus 1, OC43, read-out: OC43
T1 construct: ATCC VR-1558

SARS-CoV-2 NSP7-HiBiT = settings: read-out: NSP7- HiBiT; reduction of NSP7-HiBiT signal; degrader

| SMILES | IC50 (HCoV-OC43) [µM] | IC50 (SARS-CoV-2 NSP7-HiBiT) [µM] |
| --- | --- | --- |
| CCSc1nsc(NC(=O)NCC(C)C)n1 [BC24896, 3-(ethylthio)-5-(3-isobutylureido)-1,2,4-thiadiazole] | 29.9 | 29.3 |
| CCSc1nsc(NC(=O)Nc2ccc(F)cc2)n1 [BC24870, 3-(ethylthio)-5-[3-(p-fluorophenyl)ureido]-1,2,4-thiadiazole] | 10.1 | 17 |
| CCSc1nsc(NC(=O)Nc2ccccc2C(F)(F)F)n1 [BC24866, 3-(ethylthio)-5-{3-[o-(trifluoromethyl)phenyl]ureido}-1,2,4-thiadiazole] | 12.4 | 18.5 |
| CCSc1nsc(NC(=O)Nc2ccc(C(F)(F)F)cc2)n1 [BC24912, 3-(ethylthio)-5-{3-[p-(trifluoromethyl)phenyl]ureido}-1,2,4-thiadiazole] | 0.672 | 1.76 |
| CCSc1nsc(NC(=O)Nc2cccc(C)c2)n1 [BC24863, 3-(ethylthio)-5-[3-(m-tolyl)ureido]-1,2,4-thiadiazole] | 2.03 | 5.09 |
| CCSc1nsc(NC(=O)Nc2ccc(F)cc2F)n1 [BC24884, 5-[3-(2,4-difluorophenyl)ureido]-3-(ethylthio)-1,2,4-thiadiazole] | 16.9 | 27.6 |
| CCSc1nsc(NC(=O)Nc2cc(F)ccc2F)n1 [BC24876, 5-[3-(2,5-difluorophenyl)ureido]-3-(ethylthio)-1,2,4-thiadiazole] | 5.5 | 19.4 |
| CCSc1nsc(NC(=O)Nc2ccc(C)c(C)c2)n1 [BC24848, 3-(ethylthio)-5-[3-(3,4-xylyl)ureido]-1,2,4-thiadiazole] | 7.05 | 15.5 |
| CCOC(=O)C1CCC(CNC(=O)Nc2nc(SCC)ns2)CC1 (stereo not shown) [BC24913, ethyl 4-({3-[3-(ethylthio)-1,2,4-thiadiazol-5-yl]ureido}methyl)cyclohexanecarboxylate] | 17.4 | > 100 |
| CCSc1nsc(NC(=O)N[C@@H](C)C(=O)OC)n1 [BC24889, methyl (S)-2-{3-[3-(ethylthio)-1,2,4-thiadiazol-5-yl]ureido}propionate] | > 100 | > 100 |
| CCSc1nsc(NC(=O)Nc2ccc(F)c(Cl)c2)n1 [BC24856, 5-[3-(3-chloro-4-fluorophenyl)ureido]-3-(ethylthio)-1,2,4-thiadiazole] | 1.41 | 11.8 |
| CCSc1nsc(NC(=O)NCc2ccco2)n1 [BC24885, 3-(ethylthio)-5-(3-furfurylureido)-1,2,4-thiadiazole] | > 100 | > 100 |
| CCSc1nsc(NC(=O)Nc2ccc(C)cc2C)n1 [BC24867, 3-(ethylthio)-5-[3-(2,4-xylyl)ureido]-1,2,4-thiadiazole] | 13 | > 100 |
| CCSc1nsc(NC(=O)NC2CCCC2)n1 [BC24872, 5-(3-cyclopentylureido)-3-(ethylthio)-1,2,4-thiadiazole] | 30.9 | > 100 |
| CCOC(=O)C[C@H](NC(=O)Nc1nc(SCC)ns1)c1ccccc1 [BC24871, ethyl (S)-3-{3-[3-(ethylthio)-1,2,4-thiadiazol-5-yl]ureido}-3-phenylpropionate] | 23.1 | > 100 |
| CCSc1nsc(NC(=O)NCCc2ccccc2)n1 [BC24881, 3-(ethylthio)-5-(3-phenethylureido)-1,2,4-thiadiazole] | 31.9 | 30 |

| SMILES | IC50 (HCoV-OC43) [µM] | IC50 (SARS-CoV-2 NSP7-HiBiT) [µM] |
| --- | --- | --- |
| CCSc1nsc(NC(=O)Nc2cccc(F)c2C)n1 [BC24907, 3-(ethylthio)-5-[3-(3-fluoro-2-tolyl)ureido]-1,2,4-thiadiazole] | 3.36 | 9.85 |
| CCSc1nsc(NC(=O)Nc2cc(C)ccc2C)n1 [BC24849, 3-(ethylthio)-5-[3-(2,5-xylyl)ureido]-1,2,4-thiadiazole] | 5.35 | 12.8 |
| CCSc1nsc(NC(=O)Nc2cccc(C)c2C)n1 [BC24847, 3-(ethylthio)-5-[3-(2,3-xylyl)ureido]-1,2,4-thiadiazole] | 9.14 | 65.8 |
| CCSc1nsc(NC(=O)Nc2ccc(Br)c(C)c2)n1 [BC24878, 5-[3-(4-bromo-3-tolyl)ureido]-3-(ethylthio)-1,2,4-thiadiazole] | 2.55 | 3.8 |
| CCSc1nsc(NC(=O)NC(C)(C)C)n1 [BC24900, 5-(3-tert-butylureido)-3-(ethylthio)-1,2,4-thiadiazole] | > 100 | > 100 |
| CCSc1nsc(NC(=O)NCCCOC)n1 [BC24869, 3-(ethylthio)-5-[3-(3-methoxypropyl)ureido]-1,2,4-thiadiazole] | 56.7 | > 100 |
| CCSc1nsc(NC(=O)Nc2ccccc2CC)n1 [BC24864, 5-[3-(o-ethylphenyl)ureido]-3-(ethylthio)-1,2,4-thiadiazole] | 63.8 | 47.4 |
| CCSc1nsc(NC(=O)Nc2cc(F)cc(F)c2)n1 [BC24850, 5-[3-(3,5-difluorophenyl)ureido]-3-(ethylthio)-1,2,4-thiadiazole] | 1.22 | 2.96 |
| CCSc1nsc(NC(=O)Nc2ccc(OC)cc2)n1 [BC24857, 3-(ethylthio)-5-[3-(p-methoxyphenyl)ureido]-1,2,4-thiadiazole] | 88.8 | > 100 |
| CCSc1nsc(NC(=O)NCc2ccc(OC)cc2)n1 [BC24906, 3-(ethylthio)-5-{3-[(p-methoxyphenyl)methyl]ureido}-1,2,4-thiadiazole] | > 100 | > 100 |
| CCSc1nsc(NC(=O)NCCC(C)C)n1 [BC24893, 3-(ethylthio)-5-(3-isopentylureido)-1,2,4-thiadiazole] | 13.7 | 18.5 |
| CCOC(=O)[C@H](C)NC(=O)Nc1nc(SCC)ns1 [BC24902, ethyl (S)-2-{3-[3-(ethylthio)-1,2,4-thiadiazol-5-yl]ureido}propionate] | > 100 | > 100 |
| CCSc1nsc(NC(=O)Nc2cccc(Cl)c2F)n1 [BC24911, 5-[3-(3-chloro-2-fluorophenyl)ureido]-3-(ethylthio)-1,2,4-thiadiazole] | 8.13 | 9.72 |
| CCSc1nsc(NC(=O)Nc2cccc(OC)c2)n1 [BC24841, 3-(ethylthio)-5-[3-(m-methoxyphenyl)ureido]-1,2,4-thiadiazole] | 5.5 | 12.3 |
| CCSc1nsc(NC(=O)Nc2cc(F)c(F)c(F)c2)n1 [BC24910, 3-(ethylthio)-5-[3-(3,4,5-trifluorophenyl)ureido]-1,2,4-thiadiazole] | 0.42 | 2.23 |
| CCSc1nsc(NC(=O)Nc2cc(OC)ccc2OC)n1 [BC24853, 5-[3-(2,5-dimethoxyphenyl)ureido]-3-(ethylthio)-1,2,4-thiadiazole] | 9.87 | > 100 |
